Laboratory results published in patent US20250368619A1, “SUBSTITUTED TETRAHYDROCYCLOHEPTA[E]INDOLE DERIVATIVES, PROCESSES FOR THEIR PREPARATION AND THERAPEUTIC USES THEREOF” (SANOFI, priority 2022, published 2025).

biological target: T1, ERα (Homo sapiens, UniProt P03372); assay: Estrogen receptor degradation activity: breast cancer cell ERα in cell western assay in MCF7 cells; format: cell-based; details: 4 hours, relative to fulvestrant 0.1 μM positive control
T1 construct: host or cells: MCF7
T1 sequence (P03372 1-595): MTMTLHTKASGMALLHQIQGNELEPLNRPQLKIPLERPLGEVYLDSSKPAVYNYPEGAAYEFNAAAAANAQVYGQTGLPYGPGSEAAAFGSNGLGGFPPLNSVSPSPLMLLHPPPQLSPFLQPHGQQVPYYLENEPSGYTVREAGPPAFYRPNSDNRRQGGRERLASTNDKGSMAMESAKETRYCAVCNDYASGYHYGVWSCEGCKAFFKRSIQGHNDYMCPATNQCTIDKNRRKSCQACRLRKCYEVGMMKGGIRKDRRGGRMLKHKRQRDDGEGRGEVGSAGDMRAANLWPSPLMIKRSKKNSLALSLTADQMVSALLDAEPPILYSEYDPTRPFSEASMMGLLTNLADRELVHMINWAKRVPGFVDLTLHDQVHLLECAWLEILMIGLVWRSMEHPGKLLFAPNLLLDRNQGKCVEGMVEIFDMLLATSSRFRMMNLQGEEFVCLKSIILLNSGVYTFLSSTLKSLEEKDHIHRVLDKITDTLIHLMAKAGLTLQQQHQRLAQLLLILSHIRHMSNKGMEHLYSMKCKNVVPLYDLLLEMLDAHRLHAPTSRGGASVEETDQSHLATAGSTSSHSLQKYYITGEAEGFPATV
Description: Test: Estrogen receptor degradation activity
Said test involves measuring the in vitro degradation activity of the compounds of the table 1.
The measurements of the degradation activities were made using a breast cancer cell ERα in cell western assay as described hereunder.
MCF7 cells (ATCC) were seeded in 384 wells microplate (collagen coated) at a concentration of 10000 cells/30 μL per well in red phenol free MEM alpha medium (invitrogen) containing 5% charcoal dextran striped FBS. The following day, 9 points serial 1:5 dilution of each compound was added to the cells in 2.5 μL at final concentrations ranging from 0.3-0.0000018 μM (in table 2), or 0.1 μM for fulvestrant (using as positive control). At 4 hours post compound addition the cells were fixed by adding 25 μL of formalin (final concentration 5% formalin containing 0.1% triton) for 10 minutes at RT and then washed twice with PBS. Then, 50 μL of LI-COR blocking buffer containing 0.1% Triton was added to plate for 30 minutes at RT. LI-COR blocking buffer was removed and cells were incubated overnight at cold room with 50 μL anti-ER rabbit monoclonal antibody (Thermo scientific MA1-39540) diluted at 1:1000 in LI-COR blocking buffer containing 0.1% tween-20. Wells which were treated with blocking buffer but no antibody were used as background control. Wells were washed twice with PBS (0.1% tween-20) and incubated at 37° C. for 60 minutes in LI-COR (0.1% tween-20) containing goat anti-rabbit antibody Alexa 488 (1:1000) and Syto-64 a DNA dye (2 μM final concentration). Cells were then washed 3 times in PBS and scanned in ACUMEN explorer (TTP-Labtech). Integrated intensities in the green fluorescence and red fluorescence were measured to determine the levels of ERα and DNA respectively.
The degradation activity with respect to estrogen receptors in this test is given by the concentration which degrades 50% of the estrogen receptor (or IC50) in nM.
The % of ERα levels decrease were determined as follows: % inhibition=100*(1−(sample−fulvestrant:DMSO−fulvestrant)).

Compound | % Degradation At 0.3 μM [%]
OCCc1cccc(C2=C(c3ccc(CC4CN(CCCF)C4)cc3)c3ccc4[nH]ccc4c3CCC2)c1 [Compound 21, 2-(3-(6-(4-((1-(3-fluoropropyl)azetidin-3-yl)methyl)phenyl)-3,8,9,10-tetrahydrocyclohepta[e]indol-7-yl)phenyl)ethan-1-ol] | 65
Cc1c(Cl)cccc1C1=C(c2ccc(C=C3CN(CCCF)C3)cc2)c2ccc3[nH]ccc3c2CCC1 [Compound 3, 7-(3-chloro-2-methylphenyl)-6-(4-((1-(3-fluoropropyl)azetidin-3-ylidene)methyl)phenyl)-3,8,9,10-tetrahydrocyclohepta[e]indole] | 91
COc1cccc(C2=C(c3ccc(CC4CN(CCCF)C4)cc3)c3ccc4[nH]ccc4c3CCC2)c1OC [Compound 9, 7-(2,3-dimethoxyphenyl)-6-(4-((1-(3-fluoropropyl)azetidin-3-yl)methyl)phenyl)-3,8,9,10-tetrahydrocyclohepta[e]indole] | 80

Next, values leading:

% Degradation At 0.3 μM [%] | Compound
95 | FCCCN1CC[C@H](Oc2ccc(C3=C(C4=CCC(F)(F)CC4)CCCc4c3ccc3[nH]ccc43)cc2)C1 [Compound 5, (S)-7-(4,4-difluorocyclohex-1-en-1-yl)-6-(4-((1-(3-fluoropropyl)pyrrolidin-3-yl)oxy)phenyl)-3,8,9,10-tetrahydrocyclohepta[e]indole]
91 | Cc1c(Cl)cccc1C1=C(c2ccc(NC3CN(CCCF)C3)cc2)c2ccc3[nH]ccc3c2CCC1 [Compound 27, N-(4-(7-(3-chloro-2-methylphenyl)-3,8,9,10-tetrahydrocyclohepta[e]indol-6-yl)phenyl)-1-(3-fluoropropyl)azetidin-3-amine]
